Results reported in PubChem BioAssay (NCI).
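Interpolation was linear, between the two tested concentrations surrounding the appropriate level; five concentrations were tested over 48 hours in 96-well plates. TGI: concentration producing complete growth inhibition.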 Where a SMILES comes first, the peptide text is derived from it. The star is where a group is joined. Cbz = O=C(OCc1ccccc1)*

Tested on: SK-MEL-2 melanoma
Experiment: NCI anticancer screen, dose series, 48 h

Compound	TGI [µM]
FC(F)(F)c1ccc2c(c1)nc(-c1ccc(Cl)cc1)n2CC1CCCN2CCCCC12 (centres undefined)	30.2
Nc1ccccc1N=Cc1cc2cc([N+](=O)[O-])ccc2s1	37.3
O=C(CNS(=O)(=O)Cc1ccccc1)NNc1ccccc1	> 100

Tested on: SK-MEL-28 melanoma
Experiment: NCI anticancer screen, dose series, 48 h

Compound	TGI [µM]
CC(NC(=O)C(NC(=O)OCc1ccccc1)C(C)C)C(=O)NCC(=O)O (stereo not drawn) (Cbz-Val-Ala-Gly-OH; configuration not given here)	> 100
[N-]=[N+]=CC(=O)OC1Cc2ccccc2C1	> 100
COc1ccc(/C=C2\c3cc(OC)c(OC)cc3CCN2C(=O)c2ccccc2)cc1OC	> 100
O=c1oc2c/c(=C\c3ccc([N+](=O)[O-])cc3)c(=O)c3cccc1c3-2	> 100
FC(F)(F)c1ccc2c(c1)nc(-c1ccc(Cl)cc1)n2CC1CCCN2CCCCC12 (centres undefined)	30.8
Nc1ccccc1N=Cc1cc2cc([N+](=O)[O-])ccc2s1	57.8
O=C(CNS(=O)(=O)Cc1ccccc1)NNc1ccccc1	> 100

Tested on: SK-MEL-5 melanoma
Experiment: NCI anticancer screen, dose series, 48 h

Compound	TGI [µM]
CC(NC(=O)C(NC(=O)OCc1ccccc1)C(C)C)C(=O)NCC(=O)O (stereo not drawn) (Cbz-Val-Ala-Gly-OH; configuration not given here)	> 100
[N-]=[N+]=CC(=O)OC1Cc2ccccc2C1	> 100
COc1ccc(/C=C2\c3cc(OC)c(OC)cc3CCN2C(=O)c2ccccc2)cc1OC	45
O=c1oc2c/c(=C\c3ccc([N+](=O)[O-])cc3)c(=O)c3cccc1c3-2	> 100
FC(F)(F)c1ccc2c(c1)nc(-c1ccc(Cl)cc1)n2CC1CCCN2CCCCC12 (centres undefined)	27.1
Nc1ccccc1N=Cc1cc2cc([N+](=O)[O-])ccc2s1	> 100
O=C(CNS(=O)(=O)Cc1ccccc1)NNc1ccccc1	> 100

Tested on: SK-OV-3 ovarian
Experiment: NCI anticancer screen, dose series, 48 h

Compound	TGI [µM]
CC(NC(=O)C(NC(=O)OCc1ccccc1)C(C)C)C(=O)NCC(=O)O (stereo not drawn) (Cbz-Val-Ala-Gly-OH; configuration not given here)	> 100
[N-]=[N+]=CC(=O)OC1Cc2ccccc2C1	> 100
O=c1oc2c/c(=C\c3ccc([N+](=O)[O-])cc3)c(=O)c3cccc1c3-2	> 100
FC(F)(F)c1ccc2c(c1)nc(-c1ccc(Cl)cc1)n2CC1CCCN2CCCCC12 (centres undefined)	21.3
Nc1ccccc1N=Cc1cc2cc([N+](=O)[O-])ccc2s1	29.7
O=C(CNS(=O)(=O)Cc1ccccc1)NNc1ccccc1	> 100

Tested on: SN12C renal
Experiment: NCI anticancer screen, dose series, 48 h

Compound	TGI [µM]
CC(NC(=O)C(NC(=O)OCc1ccccc1)C(C)C)C(=O)NCC(=O)O (stereo not drawn) (Cbz-Val-Ala-Gly-OH; configuration not given here)	> 100
[N-]=[N+]=CC(=O)OC1Cc2ccccc2C1	> 100
COc1ccc(/C=C2\c3cc(OC)c(OC)cc3CCN2C(=O)c2ccccc2)cc1OC	> 100
O=c1oc2c/c(=C\c3ccc([N+](=O)[O-])cc3)c(=O)c3cccc1c3-2	> 100
FC(F)(F)c1ccc2c(c1)nc(-c1ccc(Cl)cc1)n2CC1CCCN2CCCCC12 (centres undefined)	26
Nc1ccccc1N=Cc1cc2cc([N+](=O)[O-])ccc2s1	> 100
O=C(CNS(=O)(=O)Cc1ccccc1)NNc1ccccc1	> 100

Tested on: SNB-19 CNS
Experiment: NCI anticancer screen, dose series, 48 h

Compound	TGI [µM]
CC(NC(=O)C(NC(=O)OCc1ccccc1)C(C)C)C(=O)NCC(=O)O (stereo not drawn) (Cbz-Val-Ala-Gly-OH; configuration not given here)	> 100
[N-]=[N+]=CC(=O)OC1Cc2ccccc2C1	> 100
COc1ccc(/C=C2\c3cc(OC)c(OC)cc3CCN2C(=O)c2ccccc2)cc1OC	> 100
O=c1oc2c/c(=C\c3ccc([N+](=O)[O-])cc3)c(=O)c3cccc1c3-2	> 100
FC(F)(F)c1ccc2c(c1)nc(-c1ccc(Cl)cc1)n2CC1CCCN2CCCCC12 (centres undefined)	31.2
Nc1ccccc1N=Cc1cc2cc([N+](=O)[O-])ccc2s1	46.6
O=C(CNS(=O)(=O)Cc1ccccc1)NNc1ccccc1	> 100

Tested on: SNB-75 CNS
Experiment: NCI anticancer screen, dose series, 48 h

Compound	TGI [µM]
[N-]=[N+]=CC(=O)OC1Cc2ccccc2C1	> 100
COc1ccc(/C=C2\c3cc(OC)c(OC)cc3CCN2C(=O)c2ccccc2)cc1OC	> 100
O=c1oc2c/c(=C\c3ccc([N+](=O)[O-])cc3)c(=O)c3cccc1c3-2	88.6
FC(F)(F)c1ccc2c(c1)nc(-c1ccc(Cl)cc1)n2CC1CCCN2CCCCC12 (centres undefined)	21.7
Nc1ccccc1N=Cc1cc2cc([N+](=O)[O-])ccc2s1	28.8
O=C(CNS(=O)(=O)Cc1ccccc1)NNc1ccccc1	> 100

Tested on: SR leukemia
Experiment: NCI anticancer screen, dose series, 48 h

Compound	TGI [µM]
CC(NC(=O)C(NC(=O)OCc1ccccc1)C(C)C)C(=O)NCC(=O)O (stereo not drawn) (Cbz-Val-Ala-Gly-OH; configuration not given here)	> 100
[N-]=[N+]=CC(=O)OC1Cc2ccccc2C1	> 100
COc1ccc(/C=C2\c3cc(OC)c(OC)cc3CCN2C(=O)c2ccccc2)cc1OC	> 100
O=c1oc2c/c(=C\c3ccc([N+](=O)[O-])cc3)c(=O)c3cccc1c3-2	> 100
FC(F)(F)c1ccc2c(c1)nc(-c1ccc(Cl)cc1)n2CC1CCCN2CCCCC12 (centres undefined)	33.8
Nc1ccccc1N=Cc1cc2cc([N+](=O)[O-])ccc2s1	> 100
O=C(CNS(=O)(=O)Cc1ccccc1)NNc1ccccc1	> 100

Tested on: SW-620 colon
Experiment: NCI anticancer screen, dose series, 48 h

Compound	TGI [µM]
CC(NC(=O)C(NC(=O)OCc1ccccc1)C(C)C)C(=O)NCC(=O)O (stereo not drawn) (Cbz-Val-Ala-Gly-OH; configuration not given here)	> 100
[N-]=[N+]=CC(=O)OC1Cc2ccccc2C1	> 100
COc1ccc(/C=C2\c3cc(OC)c(OC)cc3CCN2C(=O)c2ccccc2)cc1OC	> 100
O=c1oc2c/c(=C\c3ccc([N+](=O)[O-])cc3)c(=O)c3cccc1c3-2	> 100
FC(F)(F)c1ccc2c(c1)nc(-c1ccc(Cl)cc1)n2CC1CCCN2CCCCC12 (centres undefined)	38.1
Nc1ccccc1N=Cc1cc2cc([N+](=O)[O-])ccc2s1	> 100
O=C(CNS(=O)(=O)Cc1ccccc1)NNc1ccccc1	> 100

Tested on: T-47D breast
Experiment: NCI anticancer screen, dose series, 48 h

Compound	TGI [µM]
CC(NC(=O)C(NC(=O)OCc1ccccc1)C(C)C)C(=O)NCC(=O)O (stereo not drawn) (Cbz-Val-Ala-Gly-OH; configuration not given here)	> 100
[N-]=[N+]=CC(=O)OC1Cc2ccccc2C1	> 100
COc1ccc(/C=C2\c3cc(OC)c(OC)cc3CCN2C(=O)c2ccccc2)cc1OC	86.8
O=c1oc2c/c(=C\c3ccc([N+](=O)[O-])cc3)c(=O)c3cccc1c3-2	> 100
FC(F)(F)c1ccc2c(c1)nc(-c1ccc(Cl)cc1)n2CC1CCCN2CCCCC12 (centres undefined)	39.8
Nc1ccccc1N=Cc1cc2cc([N+](=O)[O-])ccc2s1	20.8
O=C(CNS(=O)(=O)Cc1ccccc1)NNc1ccccc1	> 100

Tested on: TK-10 renal
Experiment: NCI anticancer screen, dose series, 48 h

Compound	TGI [µM]
CC(NC(=O)C(NC(=O)OCc1ccccc1)C(C)C)C(=O)NCC(=O)O (stereo not drawn) (Cbz-Val-Ala-Gly-OH; configuration not given here)	> 100
[N-]=[N+]=CC(=O)OC1Cc2ccccc2C1	> 100
COc1ccc(/C=C2\c3cc(OC)c(OC)cc3CCN2C(=O)c2ccccc2)cc1OC	> 100
O=c1oc2c/c(=C\c3ccc([N+](=O)[O-])cc3)c(=O)c3cccc1c3-2	72.1
FC(F)(F)c1ccc2c(c1)nc(-c1ccc(Cl)cc1)n2CC1CCCN2CCCCC12 (centres undefined)	28.5
Nc1ccccc1N=Cc1cc2cc([N+](=O)[O-])ccc2s1	29.6
O=C(CNS(=O)(=O)Cc1ccccc1)NNc1ccccc1	> 100

Tested on: U251 CNS
Experiment: NCI anticancer screen, dose series, 48 h

Compound	TGI [µM]
CC(NC(=O)C(NC(=O)OCc1ccccc1)C(C)C)C(=O)NCC(=O)O (stereo not drawn) (Cbz-Val-Ala-Gly-OH; configuration not given here)	> 100
[N-]=[N+]=CC(=O)OC1Cc2ccccc2C1	> 100
COc1ccc(/C=C2\c3cc(OC)c(OC)cc3CCN2C(=O)c2ccccc2)cc1OC	> 100
O=c1oc2c/c(=C\c3ccc([N+](=O)[O-])cc3)c(=O)c3cccc1c3-2	> 100
FC(F)(F)c1ccc2c(c1)nc(-c1ccc(Cl)cc1)n2CC1CCCN2CCCCC12 (centres undefined)	27.3
Nc1ccccc1N=Cc1cc2cc([N+](=O)[O-])ccc2s1	28.2
O=C(CNS(=O)(=O)Cc1ccccc1)NNc1ccccc1	> 100

Tested on: UACC-257 melanoma
Experiment: NCI anticancer screen, dose series, 48 h

Compound	TGI [µM]
CC(NC(=O)C(NC(=O)OCc1ccccc1)C(C)C)C(=O)NCC(=O)O (stereo not drawn) (Cbz-Val-Ala-Gly-OH; configuration not given here)	> 100
[N-]=[N+]=CC(=O)OC1Cc2ccccc2C1	> 100
COc1ccc(/C=C2\c3cc(OC)c(OC)cc3CCN2C(=O)c2ccccc2)cc1OC	> 100
O=c1oc2c/c(=C\c3ccc([N+](=O)[O-])cc3)c(=O)c3cccc1c3-2	> 100
FC(F)(F)c1ccc2c(c1)nc(-c1ccc(Cl)cc1)n2CC1CCCN2CCCCC12 (centres undefined)	28.7
Nc1ccccc1N=Cc1cc2cc([N+](=O)[O-])ccc2s1	51.2
O=C(CNS(=O)(=O)Cc1ccccc1)NNc1ccccc1	> 100

Tested on: UACC-62 melanoma
Experiment: NCI anticancer screen, dose series, 48 h

Compound	TGI [µM]
CC(NC(=O)C(NC(=O)OCc1ccccc1)C(C)C)C(=O)NCC(=O)O (stereo not drawn) (Cbz-Val-Ala-Gly-OH; configuration not given here)	> 100
[N-]=[N+]=CC(=O)OC1Cc2ccccc2C1	> 100
COc1ccc(/C=C2\c3cc(OC)c(OC)cc3CCN2C(=O)c2ccccc2)cc1OC	> 100
O=c1oc2c/c(=C\c3ccc([N+](=O)[O-])cc3)c(=O)c3cccc1c3-2	> 100
FC(F)(F)c1ccc2c(c1)nc(-c1ccc(Cl)cc1)n2CC1CCCN2CCCCC12 (centres undefined)	28.1
Nc1ccccc1N=Cc1cc2cc([N+](=O)[O-])ccc2s1	38.1
O=C(CNS(=O)(=O)Cc1ccccc1)NNc1ccccc1	> 25.6

Tested on: UO-31 renal
Experiment: NCI anticancer screen, dose series, 48 h

Compound	TGI [µM]
CC(NC(=O)C(NC(=O)OCc1ccccc1)C(C)C)C(=O)NCC(=O)O (stereo not drawn) (Cbz-Val-Ala-Gly-OH; configuration not given here)	> 100
[N-]=[N+]=CC(=O)OC1Cc2ccccc2C1	35.8
COc1ccc(/C=C2\c3cc(OC)c(OC)cc3CCN2C(=O)c2ccccc2)cc1OC	> 100
O=c1oc2c/c(=C\c3ccc([N+](=O)[O-])cc3)c(=O)c3cccc1c3-2	> 100
FC(F)(F)c1ccc2c(c1)nc(-c1ccc(Cl)cc1)n2CC1CCCN2CCCCC12 (centres undefined)	22.9
Nc1ccccc1N=Cc1cc2cc([N+](=O)[O-])ccc2s1	48.8
O=C(CNS(=O)(=O)Cc1ccccc1)NNc1ccccc1	> 100
